# Reference: patent US20240148831A1, “COMBINATION TREATMENTS FOR CHOLESTASIS” (THE BOARD OF REGENTS OF THE UNIVERSITY OF OKLAHOMA, priority 2022, published 2024)
# What was measured:
# Assay type in all cases: in vivo
# Cyp2c70 KO mice [1] = assay: Liver histopathology, serum transaminases and liver mRNA markers after 4 weeks of treatment in Cyp2c70 KO mice; details: female Cyp2c70 KO mice
# Source text: (§1) The Cyp2c70 KO mice with Exon 4 deletion were generated by CRISPR/Cas-mediated genome engineering. Cas9 and gRNA (gRNA1 matching reverse strand of the Cyp2c70 gene: […] (SEQ ID NO:1); gRNA2 matching forward strand of the Cyp2c70 gene: […] (SEQ ID NO:2)) were co-injected into fertilized eggs of C57BL/6J mice. One F0 male founder mouse was identified by PCR followed by sequencing analysis to confirm deletion of an 888 bp genome region containing the entire Exon 4. This F0 founder was bred to a WT C57BL/6J mouse to obtain 3 F1 Cyp2c70+/−females confirming germline transmission. Further breeding of the F1 females with WT C57BL/6J mice (the Jackson Lab, Bar Harbor, ME) yielded WT mice and Cyp2c70+/−mice. Subsequent breeding of the Cyp2c70+/−offspring yielded WT mice and Cyp2c70−/− mice (Cyp2c70 KO). The Cyp2c70 KO mice were then bred via KO×KO breeding scheme. The WT littermates were used to generate WT mice via WT×WT breeding scheme. […] Mice were housed in micro-isolator cages with Biofresh performance bedding (Pelleted cellulose) under 7 AM-7 PM light cycle and 7 PM-7 AM dark cycle. GSK was mixed with chow diet to achieve an estimated 5 mg/kg/day intake based on 5 g/day food intake by a 25 g mouse. AAV-Null or AAV-FGF15 was injected via tail vein at a dose of 1×10^11 GC/mouse. Mice were euthanized following a 6 h fast from 9 am to 3 pm. Animals received humane care according to the criteria outlined in the “Guide for the Care and Use of Laboratory Animals.” All animal protocols were approved by the Institutional Animal Care and Use Committee of the University of Oklahoma Health Sciences Center.
# Liver tissues and colon tissues were fixed in 4% paraformaldehyde and paraffin embedded. Hematoxylin and Eosin (H&E) staining was performed with an automated stainer. Sirius Red staining was performed with Direct Red 80 solution (Sigma #365548, St. Louis, MO). For immunohistochemistry, paraffin embedded tissues were deparaffinized and rehydrated, and after antigen retrieval, […] sections were incubated first with blocking buffer (5% BSA and 5% goat serum in PBS) for 1 h and then blocking buffer containing primary antibodies overnight at 4° C. After washing with PBS, the sections were incubated with secondary antibodies in SignalStain® Boost IHC Detection Reagent (Cell Signaling, #8114, Danvers, MA) for 1 h. Signal was then visualized using a DAB kit (Cell Signaling, #11724, Danvers, MA). The sections were counterstained with Hematoxylin. Images are acquired by using an EVOS M5000 imaging system (ThermoFisher Scientific, Grand Island, NY).
# Total liver RNA was purified with Trizol (Sigma-Aldrich, St. Louis, MO). […] 18S was measured and used for normalization. […]
# Cyp2c70 KO mice [2] = assay: Bile acid metabolism (fecal total bile acids, bile acid pool, gallbladder bile acid composition, liver CYP7A1/CYP8B1 mRNA) in Cyp2c70 KO mice
# Source text: as §1
# (§2) Bile acids were extracted from liver, whole gallbladder bile, whole small intestine with content, and dried feces in 90% ethanol. To collect fecal sample, an individual mouse was placed in a jar briefly and fresh feces were collected. Total bile acid amount was measured by a bile acid assay kit. Bile acid pool was calculated as the total bile acids in liver, gallbladder and small intestine. Bile acid composition in the gallbladder bile and the pooled fecal extracts was analyzed on a Thermo Scientific UltiMate 3000 UHPLC with a Waters Cortecs C18 column and a TSQ Quantis triple quadrupole mass spectrometer. Standard curves for bile acids and internal standard glycine-CDCA-d4 were generated with purified compounds and relative area under the curve (AUC) was calculated. To measure T-CDCA-d4 metabolism in fecal slurry mixtures, pooled fresh fecal sample from each group was resuspended in a reaction buffer consisting of 10% PBS (pH=7.4) and 90% 3 mM sodium acetate (pH=5.2) to a final suspension of 4 mg fecal sample/ml. T-CDCA-d4 was added to a final concentration of 20 ug/ml and the mixture was incubated at 37° C. for 6 h. An equal amount of methanol was added and the mixture was incubated on ice for 1 h to precipitate protein. After centrifugation, an aliquot of the supernatant was vacuum dried and resuspended in injection buffer (0.1% formic acid, 30% acetonitrile, 70% HPLC water), which was used for LC-MS measurement of bile acids as described above.
# Total liver RNA was purified with Trizol (Sigma-Aldrich, St. Louis, MO). Reverse transcription was performed by using Oligo dT primer and SuperScript III reverse transcriptase (ThermoFisher Scientific, Grand Island, NY). Real-time PCR was performed on a Bio-Rad CFX384 Real-time PCR system with iQ SYBR Green Supermix (Bio-Rad, Hercules, CA). 18S was measured and used for normalization. The comparative CT (Ct) method was used to determine the relative mRNA expression with the control group arbitrarily set as “1”.
# Cyp2c70 KO mice [3] = assay: Gut barrier integrity (colon H&E and ZO-1 immunohistochemistry) in Cyp2c70 KO mice; details: 4 weeks
# Source text: as §1
# Liver tissues and colon tissues were fixed in 4% paraformaldehyde and paraffin embedded. Hematoxylin and Eosin (H&E) staining was performed with an automated stainer. Sirius Red staining was performed with Direct Red 80 solution (Sigma #365548, St. Louis, MO). […]
# Cyp2c70 KO mice [4] = assay: Fecal bile acid composition and concentration by LC-MS in Cyp2c70 KO mice; details: 4 weeks
# Source text: as §1, §2
# [5] = female Cyp2c70 KO mice, vs untreated mice
compound,measurement,setting,value
"CCCC[C@]1(CC)CS(=O)(=O)c2cc(CNC(CC(=O)O)CC(=O)O)c(OC)cc2[C@@H](c2ccccc2)N1 [GSK, GSK2330672]",reduction of liver p21 mRNA,Cyp2c70 KO mice [1]; 4 weeks of treatment,did not affect
same,"serum transaminases (ALT, AST)",Cyp2c70 KO mice [1]; 4 weeks of treatment,not altered
same,portal inflammation (inflammatory infiltration) and ductular reaction,"Cyp2c70 KO mice [1]; 4 weeks of treatment from 12 weeks of age, F4/80, CK19, H&E stain",largely ineffective
same,portal fibrosis,"Cyp2c70 KO mice [1]; 4 weeks of treatment, Sirius Red stain",largely ineffective
same,hepatic CYP8B1 expression,"Cyp2c70 KO mice [2]; female Cyp2c70 KO mice, 4 weeks",markedly increased
same,gallbladder T-CDCA abundance,"Cyp2c70 KO mice [2]; female Cyp2c70 KO mice, 4 weeks, untreated printed as −70%",~40%
same,gallbladder T-DCA abundance,"Cyp2c70 KO mice [2]; female Cyp2c70 KO mice, 4 weeks, untreated ~1%",~30%
same,gallbladder T-CA abundance,"Cyp2c70 KO mice [2]; female Cyp2c70 KO mice, 4 weeks, vs untreated",without affecting
same,increase of fecal bile acid loss (excretion),"Cyp2c70 KO mice [2]; female Cyp2c70 KO mice, after 2 weeks treatment",~2 fold
same,reduction of total bile acid pool,"Cyp2c70 KO mice [2]; female Cyp2c70 KO mice, after 4 weeks of treatment",~40%
same,gallbladder T-DCA abundance,"Cyp2c70 KO mice [2]; male Cyp2c70 KO mice, 4 weeks",increasing
same,liver CYP7A1 mRNA expression,"Cyp2c70 KO mice [2]; male Cyp2c70 KO mice, 4 weeks",induction
same,liver CYP8B1 mRNA expression,"Cyp2c70 KO mice [2]; male Cyp2c70 KO mice, 4 weeks",induction
same,fecal bile acid excretion,"Cyp2c70 KO mice [2]; male Cyp2c70 KO mice, after 2 weeks of treatment",increased
same,reduction of bile acid pool size,"Cyp2c70 KO mice [2]; male Cyp2c70 KO mice, after 4 weeks of treatment",~60%
same,colon ZO-1 level (immunohistochemistry),Cyp2c70 KO mice [3]; female Cyp2c70 KO mice,failed to restore
same,colon ZO-1 level (immunohistochemistry),Cyp2c70 KO mice [3]; male Cyp2c70 KO mice,failed to restore
same,histological features of the colon epithelium (H&E),Cyp2c70 KO mice [3]; male and female Cyp2c70 KO mice,did not reveal abnormal histological features
same,fecal DCA abundance (relative),Cyp2c70 KO mice [4]; female Cyp2c70 KO mice,increased
same,fecal LCA abundance (relative),"Cyp2c70 KO mice [4]; female Cyp2c70 KO mice, untreated ~90% LCA",slightly reduced
same,fecal DCA amount (absolute),Cyp2c70 KO mice [4]; [5],higher
same,fecal LCA amount (absolute),Cyp2c70 KO mice [4]; [5],higher
same,fecal DCA amount,Cyp2c70 KO mice [4]; male Cyp2c70 KO mice,increased
same,fecal LCA amount,Cyp2c70 KO mice [4]; male Cyp2c70 KO mice,did not increase
